Earlier results, collected in US3955959A, “Herbicide for use in transplanted rice” (priority 1974, dated 1976).

Assays:
rice = conditions: prior art; cited from earlier work
weeds in rice fields = conditions: prior art; cited from earlier work

SMILES | crop safety (rice) | spectrum of weed control (weeds in rice fields)
CC(C)Oc1cc(-n2nc(C(C)(C)C)oc2=O)c(Cl)cc1Cl [2-tert-butyl-4-(2,4-dichloro-5-isopropyloxyphenyl)-5-oxo-1,3,4-oxadiazoline] | marginal crop safety | 
CCSC(=O)N1CCCCCC1 [S-ethyl hexahydro-1H-azepine-1-carbothioate] |  | narrow spectrum of weed control
